This passage reports Ki results from patent US8450320B2, “Pyrrolopyrazinone inhibitors of kinases” (AbbVie Inc., priority 2010, dated 2013).

In the experiment the target is T1, Cdc7 (BEV coexpressed huCDC7/DBF4) (Homo sapiens, UniProt O00311).
T1 construct: made in house; host or cells: BEV (baculovirus expression vector)
Nature of the experiment: Cdc7 enzyme inhibition assay ([33P]-ATP, biotinylated peptide substrate, FlashPlate). Type of experiment: biochemical. As to conditions: Ki generated from IC50 assuming ATP-competitive inhibition; 1 μM ATP, apparent ATP Km 0.7 μM. How it is done:
This example describes the assays that may be used to identify compounds having kinase activity.
Cdc7 (BEV coexpressed huCDC7/DBF4) is prepared internally. Cdc7 assays are conducted as follows with final concentrations as listed. In 384-well v-bottom polypropylene plates, 6 μL compound (2% DMSO), is mixed with 6 μL of Cdc7 (2 ug/mL), and Jerini peptide substrate A-All (biotin-C6linker-TPSDSLIYDDGLS) (2 μM), followed by immediate initiation with 6 μL […] (1 μM, 20 mCi/μmol) using a reaction buffer comprising 25 mM HEPES, pH 7.5, 1 mM DTT, 10 mM MgCl2, 100 μM Na3VO4, 0.075 mg/ml Triton X-100. Reactions are quenched after 1 hr by the addition of 90 μL stop buffer (50 mM EDTA, 2M NaCl). 85 μL of the stopped reactions are transferred to 384-well streptavidin-coated plates (FlashPlate Plus, Perkin Elmer), incubated 30 minutes at room temperature and washed 3 times with 0.05% Tween-20/PBS using an ELX-405 automated plate washer (BioTek), and counted on a TopCount Scintillation Plate Reader (Packard). IC50 values are determined via non-linear regression fitting of enzyme inhibition data and corresponding Ki values are generated assuming ATP-competitive (equilibrium) inhibition and using the experimentally determined apparent ATP Km of 0.7 μM (as determined using the above assay condition, but varying ATP).
Table 1 depicts enzyme inhibition data (Ki) for exemplary compounds. In Table 1, “A” represents a Ki of less than 10 nM, “B” represents a Ki of between 10 nM and 100 nM, and “C” represents a Ki of greater than 100 nM.

T1 sequence (O00311 whole entry): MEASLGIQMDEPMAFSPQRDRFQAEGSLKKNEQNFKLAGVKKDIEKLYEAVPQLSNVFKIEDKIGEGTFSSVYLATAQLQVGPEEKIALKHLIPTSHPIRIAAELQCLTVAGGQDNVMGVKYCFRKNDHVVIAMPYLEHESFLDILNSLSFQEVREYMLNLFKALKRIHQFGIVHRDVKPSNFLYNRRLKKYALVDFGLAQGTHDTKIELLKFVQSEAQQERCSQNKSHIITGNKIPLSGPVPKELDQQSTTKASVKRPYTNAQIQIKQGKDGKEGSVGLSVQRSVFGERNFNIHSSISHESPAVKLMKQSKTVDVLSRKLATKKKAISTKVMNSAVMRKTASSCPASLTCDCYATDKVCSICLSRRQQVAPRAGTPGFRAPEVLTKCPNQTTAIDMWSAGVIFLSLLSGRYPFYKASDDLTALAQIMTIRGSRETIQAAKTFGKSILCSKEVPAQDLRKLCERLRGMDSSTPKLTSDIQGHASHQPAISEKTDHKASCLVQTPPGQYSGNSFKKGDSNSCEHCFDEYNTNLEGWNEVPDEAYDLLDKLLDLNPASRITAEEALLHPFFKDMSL
T1 sequence (Q9UBU7 whole entry partner): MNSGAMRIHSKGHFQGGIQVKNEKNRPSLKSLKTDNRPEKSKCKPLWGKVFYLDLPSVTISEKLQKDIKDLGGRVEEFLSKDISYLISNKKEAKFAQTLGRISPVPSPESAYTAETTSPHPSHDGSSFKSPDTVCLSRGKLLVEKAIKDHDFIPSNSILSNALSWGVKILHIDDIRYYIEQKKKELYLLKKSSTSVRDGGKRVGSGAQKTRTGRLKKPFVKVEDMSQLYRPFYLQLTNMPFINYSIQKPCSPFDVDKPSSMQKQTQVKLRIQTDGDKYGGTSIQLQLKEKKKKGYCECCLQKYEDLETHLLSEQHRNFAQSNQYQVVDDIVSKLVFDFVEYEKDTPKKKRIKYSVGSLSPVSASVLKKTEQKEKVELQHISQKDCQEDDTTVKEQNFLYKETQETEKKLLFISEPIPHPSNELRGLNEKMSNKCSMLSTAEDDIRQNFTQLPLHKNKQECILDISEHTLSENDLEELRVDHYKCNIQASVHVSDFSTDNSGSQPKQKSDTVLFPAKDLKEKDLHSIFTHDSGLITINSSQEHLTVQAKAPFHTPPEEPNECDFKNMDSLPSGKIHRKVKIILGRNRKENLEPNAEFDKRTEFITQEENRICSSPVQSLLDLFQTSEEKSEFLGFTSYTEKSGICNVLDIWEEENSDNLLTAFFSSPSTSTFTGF

On to `O=C(O)c1cccc(Cc2c[nH]c(=O)c3cc(-c4c[nH]c5ncccc45)cn23)c1` [Example 5, 3-{[1-oxo-7-(1H-pyrrolo[2,3-b]pyridin-3-yl)-1,2-dihydropyrrolo[1,2-a]pyrazin-4-yl]methyl}benzoic acid], for which the Ki is under 0.01 µM.

Consider `O=C(O)c1cccc(Cc2c[nH]c(=O)c3cc(-c4ccncc4)cn23)c1` [Example 7, 3-{[1-oxo-7-(pyridin-4-yl)-1,2-dihydropyrrolo[1,2-a]pyrazin-4-yl]methyl}benzoic acid], for which the Ki is 0.01 to 0.1 µM.

For `N#Cc1cc(Cc2c[nH]c(=O)c3cc(-c4c[nH]c5ncccc45)cn23)ccc1F` [Example 2, 2-fluoro-5-{[1-oxo-7-(1H-pyrrolo[2,3-b]pyridin-3-yl)-1,2-dihydropyrrolo[1,2-a]pyrazin-4-yl]methyl}benzonitrile], the Ki was under 0.01 µM. Take `CC(=O)NCc1ccc(Cc2c[nH]c(=O)c3cc(-c4c[nH]c5ncccc45)cn23)cc1` [Example 45, N-(4-{[1-oxo-7-(1H-pyrrolo[2,3-b]pyridin-3-yl)-1,2-dihydropyrrolo[1,2-a]pyrazin-4-yl]methyl}benzyl)acetamide]: the Ki is over 0.1 µM. For `CC(C)N1CCC(Nc2ccc(Cc3c[nH]c(=O)c4cc(-c5c[nH]c6ncccc56)cn34)cc2)CC1` [Example 32, 4-{4-[(1-isopropylpiperidin-4-yl)amino]benzyl}-7-(1H-pyrrolo[2,3-b]pyridin-3-yl)pyrrolo[1,2-a]pyrazin-1(2H)-one] the value was under 0.01 µM; for `CN(c1cccc(Cc2c[nH]c(=O)c3cc(-c4c[nH]c5ncccc45)cn23)c1)C1CCC1` [Example 19, 4-{3-[cyclobutyl(methyl)amino]benzyl}-7-(1H-pyrrolo[2,3-b]pyridin-3-yl)pyrrolo[1,2-a]pyrazin-1(2H)-one], 0.01 to 0.1 µM; for `CCOC(=O)c1cccc(Cc2c[nH]c(=O)c3cc(-c4cn[nH]c4)cn23)c1` [Example 9, ethyl 3-{[1-oxo-7-(1H-pyrazol-4-yl)-1,2-dihydropyrrolo[1,2-a]pyrazin-4-yl]methyl}benzoate], under 0.01 µM. In the case of `NC(=O)c1cccc(Cc2c[nH]c(=O)c3cc(-c4cn[nH]c4)cn23)c1` [Example 13, 3-{[1-oxo-7-(1H-pyrazol-4-yl)-1,2-dihydropyrrolo[1,2-a]pyrazin-4-yl]methyl}benzamide], the Ki is under 0.01 µM.

`N#Cc1cc(Cc2c[nH]c(=O)c3cc(-c4ccncc4)cn23)ccc1F` [Example 1, 2-fluoro-5-{[1-oxo-7-(pyridin-4-yl)-1,2-dihydropyrrolo[1,2-a]pyrazin-4-yl]methyl}benzonitrile]: the Ki was under 0.01 µM. With `CCOC(=O)c1cccc(Cc2c[nH]c(=O)c3cc(-c4c[nH]c5nccnc45)cn23)c1` [Example 12, ethyl 3-{[1-oxo-7-(5H-pyrrolo[2,3-b]pyrazin-7-yl)-1,2-dihydropyrrolo[1,2-a]pyrazin-4-yl]methyl}benzoate], the Ki was under 0.01 µM.

As to `O=c1[nH]cc(Cc2ccc(CN(C3CCC3)C3CCC3)cc2)n2cc(-c3c[nH]c4ncccc34)cc12` [Example 30, 4-{4-[(dicyclobutylamino)methyl]benzyl}-7-(1H-pyrrolo[2,3-b]pyridin-3-yl)pyrrolo[1,2-a]pyrazin-1(2H)-one], the Ki is 0.01 to 0.1 µM. As for `NC(=O)c1cccc(Cc2c[nH]c(=O)c3cc(-c4c[nH]c5ncccc45)cn23)c1` [Example 10, 3-{[1-oxo-7-(1H-pyrrolo[2,3-b]pyridin-3-yl)-1,2-dihydropyrrolo[1,2-a]pyrazin-4-yl]methyl}benzamide], the figure is under 0.01 µM; as for `NC1CCC(NCc2ccc(Cc3c[nH]c(=O)c4cc(-c5c[nH]c6ncccc56)cn34)cc2)CC1` (centres unmarked) [Example 44, 4-(4-{[(4-aminocyclohexyl)amino]methyl}benzyl)-7-(1H-pyrrolo[2,3-b]pyridin-3-yl)pyrrolo[1,2-a]pyrazin-1(2H)-one], under 0.01 µM; as for `N#Cc1ccc(Cc2c[nH]c(=O)c3cc(-c4c[nH]c5ncccc45)cn23)cc1` [Example 16, 4-{[1-oxo-7-(1H-pyrrolo[2,3-b]pyridin-3-yl)-1,2-dihydropyrrolo[1,2-a]pyrazin-4-yl]methyl}benzonitrile], under 0.01 µM.

On to `Nc1cccc(Cc2c[nH]c(=O)c3cc(-c4c[nH]c5ncccc45)cn23)c1` [Example 22, 4-(3-aminobenzyl)-7-(1H-pyrrolo[2,3-b]pyridin-3-yl)pyrrolo[1,2-a]pyrazin-1(2H)-one], for which the Ki is under 0.01 µM. With `O=C(c1ccc([N+](=O)[O-])cc1)c1c[nH]c(=O)c2cc(-c3c[nH]c4ncccc34)cn12` [Example 15, 4-(4-nitrobenzoyl)-7-(1H-pyrrolo[2,3-b]pyridin-3-yl)pyrrolo[1,2-a]pyrazin-1(2H)-one], the Ki is under 0.01 µM. For `CS(=O)(=O)Nc1ccc(Cc2c[nH]c(=O)c3cc(-c4c[nH]c5ncccc45)cn23)cc1` [Example 38, N-(4-{[1-oxo-7-(1H-pyrrolo[2,3-b]pyridin-3-yl)-1,2-dihydropyrrolo[1,2-a]pyrazin-4-yl]methyl}phenyl)methanesulfonamide] the value was under 0.01 µM; for `O=C(O)c1cc(Cc2c[nH]c(=O)c3cc(-c4c[nH]c5ncccc45)cn23)ccc1F` [Example 3, 2-fluoro-5-{[1-oxo-7-(1H-pyrrolo[2,3-b]pyridin-3-yl)-1,2-dihydropyrrolo[1,2-a]pyrazin-4-yl]methyl}benzoic acid], under 0.01 µM.

Turning to `O=C(Nc1ccc(Cc2c[nH]c(=O)c3cc(-c4c[nH]c5ncccc45)cn23)cc1)c1ccncc1` [Example 17, N-(4-{[1-oxo-7-(1H-pyrrolo[2,3-b]pyridin-3-yl)-1,2-dihydropyrrolo[1,2-a]pyrazin-4-yl]methyl}phenyl)isonicotinamide], the Ki is under 0.01 µM. Regarding `NCc1ccc(Cc2c[nH]c(=O)c3cc(-c4c[nH]c5ncccc45)cn23)cc1` [Example 37, 4-[4-(aminomethyl)benzyl]-7-(1H-pyrrolo[2,3-b]pyridin-3-yl)pyrrolo[1,2-a]pyrazin-1(2H)-one], the Ki is under 0.01 µM. As for `CN(C)c1cccc(Cc2c[nH]c(=O)c3cc(-c4c[nH]c5ncccc45)cn23)c1` [Example 41, 4-[3-(dimethylamino)benzyl]-7-(1H-pyrrolo[2,3-b]pyridin-3-yl)pyrrolo[1,2-a]pyrazin-1(2H)-one], the figure is under 0.01 µM; as for `CC(Nc1ccc(Cc2c[nH]c(=O)c3cc(-c4c[nH]c5ncccc45)cn23)cc1)C1CC1` (centres unmarked) [Example 39, 4-{4-[(1-cyclopropylethyl)amino]benzyl}-7-(1H-pyrrolo[2,3-b]pyridin-3-yl)pyrrolo[1,2-a]pyrazin-1(2H)-one], under 0.01 µM; as for `CN(C)CC(=O)Nc1cccc(Cc2c[nH]c(=O)c3cc(-c4c[nH]c5ncccc45)cn23)c1` [Example 33, N^2,N^2-dimethyl-N-(3-{[1-oxo-7-(1H-pyrrolo[2,3-b]pyridin-3-yl)-1,2-dihydropyrrolo[1,2-a]pyrazin-4-yl]methyl}phenyl)glycinamide], under 0.01 µM.

With `O=c1[nH]cc(Cc2ccc(CNC3CCC3)cc2)n2cc(-c3c[nH]c4ncccc34)cc12` [Example 25, 4-{4-[(cyclobutylamino)methyl]benzyl}-7-(1H-pyrrolo[2,3-b]pyridin-3-yl)pyrrolo[1,2-a]pyrazin-1(2H)-one], the Ki is under 0.01 µM. For `O=c1[nH]cc(Cc2ccc(CNS(=O)(=O)C3CC3)cc2)n2cc(-c3c[nH]c4ncccc34)cc12` [Example 29, N-(4-{[1-oxo-7-(1H-pyrrolo[2,3-b]pyridin-3-yl)-1,2-dihydropyrrolo[1,2-a]pyrazin-4-yl]methyl}benzyl)cyclopropanesulfonamide] the value was under 0.01 µM. For `O=c1[nH]cc(Cc2cccc(N(C3CCC3)C3CCC3)c2)n2cc(-c3c[nH]c4ncccc34)cc12` [Example 27, 4-[3-(dicyclobutylamino)benzyl]-7-(1H-pyrrolo[2,3-b]pyridin-3-yl)pyrrolo[1,2-a]pyrazin-1(2H)-one] the value was 0.01 to 0.1 µM. As for `O=C(Nc1ccc(Cc2c[nH]c(=O)c3cc(-c4c[nH]c5ncccc45)cn23)cc1)c1ccco1` [Example 26, N-(4-{[1-oxo-7-(1H-pyrrolo[2,3-b]pyridin-3-yl)-1,2-dihydropyrrolo[1,2-a]pyrazin-4-yl]methyl}phenyl)-2-furamide], the figure is under 0.01 µM; as for `CN(C)CC(=O)NCc1ccc(Cc2c[nH]c(=O)c3cc(-c4c[nH]c5ncccc45)cn23)cc1` [Example 34, N^2,N^2-dimethyl-N-(4-{[1-oxo-7-(1H-pyrrolo[2,3-b]pyridin-3-yl)-1,2-dihydropyrrolo[1,2-a]pyrazin-4-yl]methyl}benzyl)glycinamide], under 0.01 µM; as for `O=C(Nc1ccc(Cc2c[nH]c(=O)c3cc(-c4c[nH]c5ncccc45)cn23)cc1)C1CCC1` [Example 18, N-(4-{[1-oxo-7-(1H-pyrrolo[2,3-b]pyridin-3-yl)-1,2-dihydropyrrolo[1,2-a]pyrazin-4-yl]methyl}phenyl)cyclobutanecarboxamide], under 0.01 µM.
